Test results published in patent US12545669B2, “Cycloalkyl and heterocycloalkyl benzisoxazole sulfonamide derivatives” (Pfizer Inc., priority 2019, dated 2026).
Read-outs that look alike come from different tables or passages of the source.

Target: KAT6A (Homo sapiens (Human), UniProt Q92794)
Experiment: KAT assay protocol (SAMDI mass spectrometry), KAT6A
Format: biochemical
Settings: for inhibition at 1 µM: 1 μM compound; for Ki: 10 μM AcCoA, Morrison equation; for IC50: 1 μM AcCoA
Procedure: Biological Assay Section 1 KAT Assay Protocol:
A. Compound Preparation • 1. Prepare 10 mM stock solutions in 100% DMSO from solid material • 2. Serial dilute 10 mM, 1 mM or 0.1 mM compound stocks 3-fold in 100% DMSO for 11-point dose response
B. Reagent Preparation • 1. Prepare 1× assay buffer containing 10 mM Tris HCL pH 8.0, 2.5 mM NaCl, 0.5 mM EDTA, 0.005% BSG and 0.02% Tween-20 • 2. Dilute Histone peptide (CPC Scientific) and AcCoA (Sigma) together in assay buffer to 2×. • 3. Dilute KAT enzyme in assay buffer to 2×.
C. Enzyme Reaction • 1. Final reaction conditions for each KAT assay in a 20 ul assay reaction volume: • i. […] Add 0.5 ul of diluted compound to the assay plate (384-well V-bottom polypropylene plates) or 0.5 ul of DMSO for control wells. • 3. Add 10 ul of 2× Histone peptide/2× AcCoA mix to the assay plate. • 4. Add 10 ul of 2× enzyme to the assay plate. • 5. Stop the reaction after the indicated time with the addition of 2 ul of 5% formic acid • 6. Each reaction was analyzed using self-assembled monolayer desorption/ionization time-of-flight mass spectrometry (Mrksich, Milan (2008) Mass Spectrometry of Self-Assembled Monolayers: A New Tool for Molecular Surface Science ACS Nano 2008 2 (1), 7-18; SAMDI Tech, Inc. (Chicago, IL)). • 7. Area under the curve (AUC) for both substrate and product peaks was determined for KAT6A at M.W. 2723 [Substrate+H]^+ and 2765 [Product+H]^+ with a +/−1 Da tolerance, respectively. • 8. Percent conversion to product was calculated by: AUCProduct/(AUCSubstrate+AUCProduct).
D. Data Analysis • 1. IC50 values were determined by fitting the % conversion at each inhibitor concentration to the 4-parameter IC50 equation using Pfizer proprietary curve fitting software. • 2. Ki values were determined by fitting the % conversion at each inhibitor concentration to the Morrison equation for tightbinding competitive inhibitors using Pfizer proprietary curve fitting software. Materials
KAT enzymes were expressed using a baculovirus expression system and purified at Pfizer, La Jolla. Histone H3 (1-21) peptide ([…], SEQ ID NO:3) was purchased from CPC Scientific (Sunnyvale, CA). Acetyl coenzyme A was purchased from Sigma-Aldrich (St. Louis, MO). All other biochemical reagents were purchased from Sigma-Aldrich or ThermoFisher Scientific (Waltham, MA).
[…] 10 ul of 2× Histone peptide/AcCoA mix was added to a 384-well V-bottom polypropylene assay plate containing 0.5 ul of serially diluted test compound in 100% dimethyl sulfoxide (DMSO). To start the reaction, 10 ul of 2× enzyme solution was added to the assay plate. KAT assays were terminated after 30-60 minutes with the addition of 2 ul of 5% formic acid. KAT6A used histone H3 (1-21) peptide. The final enzyme concentration for KAT6A was 15 nM. Each reaction was analyzed using self-assembled monolayer desorption/ionization time-of-flight mass spectrometry (Mrksich, Milan (2008) Mass Spectrometry of Self-Assembled Monolayers: A New Tool for Molecular Surface Science ACS Nano 2008 2 (1), 7-18; SAMDI Tech, Inc. (Chicago, IL)).
Area under the curve (AUC) for both substrate and product peaks was determined for KAT6A at M.W. 2723 [Substrate+H]^+ and 2765 [Product+H]^+ with a +/−1 Da tolerance, respectively. Percent conversion to product was calculated by: AUCProduct/(AUCSubstrate+AUCProduct). IC50 values were determined by fitting the % conversion at each inhibitor concentration to the 4-parameter IC50 equation using Pfizer proprietary curve fitting software. Ki values were determined by fitting the % conversion at each inhibitor concentration to the Morrison equation for tightbinding competitive inhibitors using Pfizer proprietary curve fitting software.

[1] = read-out: KAT6A Ki at 10 μM AcCoA

Chain of KAT6A (Q92794 whole entry): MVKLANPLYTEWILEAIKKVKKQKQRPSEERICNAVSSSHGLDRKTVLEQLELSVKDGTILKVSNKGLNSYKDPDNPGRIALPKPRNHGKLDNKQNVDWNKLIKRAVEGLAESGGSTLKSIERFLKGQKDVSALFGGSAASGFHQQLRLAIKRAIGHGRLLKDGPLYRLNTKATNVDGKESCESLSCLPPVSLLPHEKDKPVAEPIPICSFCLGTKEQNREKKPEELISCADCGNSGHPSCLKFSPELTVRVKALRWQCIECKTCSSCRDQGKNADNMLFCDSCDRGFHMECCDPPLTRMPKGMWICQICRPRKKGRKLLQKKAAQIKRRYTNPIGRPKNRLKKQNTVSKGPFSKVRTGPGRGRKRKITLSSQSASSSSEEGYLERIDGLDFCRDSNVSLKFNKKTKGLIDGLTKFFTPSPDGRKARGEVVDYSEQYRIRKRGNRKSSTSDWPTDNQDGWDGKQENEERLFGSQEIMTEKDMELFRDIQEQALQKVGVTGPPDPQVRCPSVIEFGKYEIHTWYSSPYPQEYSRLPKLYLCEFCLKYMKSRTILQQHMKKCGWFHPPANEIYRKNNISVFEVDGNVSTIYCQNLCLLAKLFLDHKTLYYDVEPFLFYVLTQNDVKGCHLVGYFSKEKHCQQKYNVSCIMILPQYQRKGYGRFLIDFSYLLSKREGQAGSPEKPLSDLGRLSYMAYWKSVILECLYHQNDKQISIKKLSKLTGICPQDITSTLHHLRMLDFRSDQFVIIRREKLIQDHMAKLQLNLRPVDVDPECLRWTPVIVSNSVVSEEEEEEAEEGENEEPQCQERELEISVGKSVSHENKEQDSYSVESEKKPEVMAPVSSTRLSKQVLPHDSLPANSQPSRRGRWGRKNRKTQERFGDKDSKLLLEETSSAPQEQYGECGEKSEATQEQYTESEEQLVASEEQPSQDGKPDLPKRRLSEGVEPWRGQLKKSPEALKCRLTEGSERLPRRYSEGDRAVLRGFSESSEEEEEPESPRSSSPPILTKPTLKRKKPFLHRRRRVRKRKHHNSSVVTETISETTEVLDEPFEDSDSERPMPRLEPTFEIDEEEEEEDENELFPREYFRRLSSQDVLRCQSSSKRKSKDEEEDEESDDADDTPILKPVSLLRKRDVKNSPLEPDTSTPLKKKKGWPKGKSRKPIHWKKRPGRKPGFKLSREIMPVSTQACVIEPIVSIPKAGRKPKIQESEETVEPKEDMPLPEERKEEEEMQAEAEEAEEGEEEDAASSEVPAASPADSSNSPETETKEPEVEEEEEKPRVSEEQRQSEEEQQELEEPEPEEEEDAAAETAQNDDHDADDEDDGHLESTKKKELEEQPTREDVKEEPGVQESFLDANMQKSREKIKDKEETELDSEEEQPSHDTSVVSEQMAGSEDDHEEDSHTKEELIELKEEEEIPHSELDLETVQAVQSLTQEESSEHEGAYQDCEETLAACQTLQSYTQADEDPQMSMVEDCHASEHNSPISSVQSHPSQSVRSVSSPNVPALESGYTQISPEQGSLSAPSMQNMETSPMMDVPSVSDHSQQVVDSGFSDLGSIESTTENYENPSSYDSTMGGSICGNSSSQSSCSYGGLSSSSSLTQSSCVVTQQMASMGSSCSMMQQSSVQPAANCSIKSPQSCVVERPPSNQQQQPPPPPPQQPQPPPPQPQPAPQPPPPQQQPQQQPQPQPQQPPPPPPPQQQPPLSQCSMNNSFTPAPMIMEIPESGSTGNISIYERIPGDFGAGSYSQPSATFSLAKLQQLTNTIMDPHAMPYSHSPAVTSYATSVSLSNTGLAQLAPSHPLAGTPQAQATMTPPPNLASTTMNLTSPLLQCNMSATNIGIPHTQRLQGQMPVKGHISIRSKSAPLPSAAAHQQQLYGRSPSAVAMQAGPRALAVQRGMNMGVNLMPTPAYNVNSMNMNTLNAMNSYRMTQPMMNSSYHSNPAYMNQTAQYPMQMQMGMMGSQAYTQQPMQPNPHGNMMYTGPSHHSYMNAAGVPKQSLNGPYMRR

Structure (SMILES)	inhibition at 1 µM [%]	other results
COc1cc(Cn2cccn2)cc2onc(NS(=O)(=O)CC3CN(S(C)(=O)=O)C3)c12 [Example 85]	36	Ki (KAT6A Ki at 10 μM AcCoA): 1340 nM
COc1cc(Cn2cccn2)cc2onc(NS(=O)(=O)CC3(C)CC3)c12 [Example 39]	52	
COc1cc(Cn2cccn2)cc2onc(NS(=O)(=O)C3CC3)c12 [Example 13]		Ki [1]: 224 nM
COc1cc(Cn2cccn2)cc2onc(NS(=O)(=O)CC3CCCCO3)c12 (stereo not shown) [Example 101]	65	
COc1cc(Cn2cccn2)cc2onc(NS(=O)(=O)CC3CCCCO3)c12 (single isomer, unassigned; (+)) [Example 1, (+)-N-{4-methoxy-6-[(1H-pyrazol-1-yl)methyl]-1,2-benzoxazol-3-yl}-1-(oxan-2-yl)methanesulfonamide]	88	IC50 (KAT6A IC50 at 1 μM AcCoA): 117 nM
COc1cc(Cn2cccn2)cc2onc(NS(=O)(=O)NC3CCCCC3)c12 [Example 131]		IC50 (read-out: KAT6A IC50 at 1 μM AcCoA): 6 nM; Ki [1]: 3 nM
COc1cc(Cn2cccn2)cc2onc(NS(=O)(=O)CC3(OC(C)C)CCCO3)c12 (stereo not shown) [Example 122]	85	IC50 (KAT6A IC50 at 1 μM AcCoA): 38.4 nM; Ki (KAT6A Ki at 10 μM AcCoA): 14.9 nM
COc1cc(Cn2cccn2)cc2onc(NS(=O)(=O)N(C)C3CCCCC3)c12 [Example 132]		IC50 (KAT6A IC50 at 1 μM AcCoA): 9 nM; Ki (KAT6A Ki at 10 μM AcCoA): 4 nM
COc1cc(Cn2cccn2)cc2onc(NS(=O)(=O)CC3CCCOC3)c12 (stereo not shown) [Example 4]		IC50 (KAT6A IC50 at 1 μM AcCoA): 349 nM
COc1cc(Cn2cccn2)cc2onc(NS(=O)(=O)[C@H]3CCC[C@H]3OC)c12 [Example 18]	83	Ki [1]: 71.9 nM
COc1cc(Cn2cccn2)cc2onc(NS(=O)(=O)CCC3CCC3)c12 [Example 29]	103	Ki (KAT6A Ki at 10 μM AcCoA): 13.1 nM
COc1cc(Cn2cccn2)cc2onc(NS(=O)(=O)C3CCCC3)c12 [Example 20]		Ki [1]: 36.5 nM
COc1cc(Cn2cccn2)cc2onc(NS(=O)(=O)C3CCC(C#N)C3)c12 (stereo not shown) [Example 16]	81	
COc1cc(Cn2cccn2)cc2onc(NS(=O)(=O)CC3(C#N)CCCCC3)c12 [Example 40]	58	
COc1cc(Cn2cccn2)cc2onc(NS(=O)(=O)C3CCOC(C)C3)c12 (stereo not shown) [Example 89]	84	Ki (KAT6A Ki at 10 μM AcCoA): 87.3 nM
COc1cc(Cn2cccn2)cc2onc(NS(=O)(=O)CC3CCCC3(F)F)c12 (stereo not shown) [Example 77]		Ki (KAT6A Ki at 10 μM AcCoA): 15.5 nM
COc1cc(Cn2cccn2)cc2onc(NS(=O)(=O)CC3CCCO3)c12 (stereo not shown) [Example 5]		IC50 (KAT6A IC50 at 1 μM AcCoA): 323 nM
COc1cc(Cn2cccn2)cc2onc(NS(=O)(=O)C[C@H]3C[C@@H](C)C3)c12 [Example 133]		IC50 (KAT6A IC50 at 1 μM AcCoA): 40 nM
CCOC1(CS(=O)(=O)Nc2noc3cc(Cn4cccn4)cc(OC)c23)CCC1 [Example 11]	45	Ki (KAT6A Ki at 10 μM AcCoA): 371 nM
COc1cc(Cn2cccn2)cc2onc(NS(=O)(=O)[C@H]3C[C@H]4CC[C@H]3C4)c12 [Example 25]	87	Ki (KAT6A Ki at 10 μM AcCoA): 16.5 nM
COc1cc(Cn2cccn2)cc2onc(NS(=O)(=O)CCCC3CCCCC3)c12 [Example 37]	98	
COc1cc(Cn2cccn2)cc2onc(NS(=O)(=O)CCC(C)(C)C3CC3)c12 [Example 32]	108	Ki (KAT6A Ki at 10 μM AcCoA): 4.88 nM
COc1cc(Cn2cccn2)cc2onc(NS(=O)(=O)[C@H]3C[C@H]3c3ccccc3)c12 [Example 28]		Ki [1]: 14.2 nM
COc1cc(Cn2cccn2)cc2onc(NS(=O)(=O)C3CCCOC3)c12 (stereo not shown) [Example 87]	73	Ki (KAT6A Ki at 10 μM AcCoA): 100 nM
COc1cc(Cn2cccn2)cc2onc(NS(=O)(=O)[C@H]3CCCN(C(=O)OCc4ccccc4)C3)c12 [Example 88]		Ki (KAT6A Ki at 10 μM AcCoA): 99.4 nM
COc1cc(Cn2cccn2)cc2onc(NS(=O)(=O)[C@H]3C[C@@H]3c3ccc(F)cc3)c12 [Example 27]		Ki (KAT6A Ki at 10 μM AcCoA): 13.8 nM
COc1cc(Cn2cccn2)cc2onc(NS(=O)(=O)CCC3CC3(F)F)c12 (stereo not shown) [Example 78]	77	Ki (KAT6A Ki at 10 μM AcCoA): 45.8 nM
COc1cc(Cn2cccn2)cc2onc(NS(=O)(=O)CC3CCCC(F)(F)C3)c12 (stereo not shown) [Example 19]	81	Ki (KAT6A Ki at 10 μM AcCoA): 65.3 nM

Now from value to compound, other results behind:

inhibition at 1 µM [%]	Structure (SMILES)	other results
48	COc1cc(Cn2cccn2)cc2onc(NS(=O)(=O)CC3CCCCC3(C)C)c12 (stereo not shown) [Example 63]	
68	COCC1(S(=O)(=O)Nc2noc3cc(Cn4cccn4)cc(OC)c23)CC1 [Example 47]	
97	COc1cc(Cn2cccn2)cc2onc(NS(=O)(=O)C3CC(C)CC(C)C3)c12 (stereo not shown) [Example 62]	
104	COc1cc(Cn2cccn2)cc2onc(NS(=O)(=O)CC34CCC(CC3)C4)c12 [Example 67]	
56	COc1cc(Cn2cccn2)cc2onc(NS(=O)(=O)CC3(C)CCOCC3)c12 [Example 118]	
91	COc1cc(Cn2cccn2)cc2onc(NS(=O)(=O)CC3CCCCC3(F)F)c12 (stereo not shown) [Example 41]	
64	COCC1(CS(=O)(=O)Nc2noc3cc(Cn4cccn4)cc(OC)c23)CCC1 [Example 55]	
68	COc1cc(Cn2cccn2)cc2onc(NS(=O)(=O)CCC3CCOC3)c12 (stereo not shown) [Example 112]	
95	COc1cc(Cn2cccn2)cc2onc(NS(=O)(=O)CC3(C(F)F)CCCC3)c12 [Example 65]	
40	COc1cc(Cn2cccn2)cc2onc(NS(=O)(=O)CC3CCN(C(C)=O)CC3)c12 [Example 92]	
83	COc1cc(Cn2cccn2)cc2onc(NS(=O)(=O)C3CCCN(C(C)=O)C3)c12 (stereo not shown) [Example 97]	
55	COc1cc(Cn2cccn2)cc2onc(NS(=O)(=O)CC(C)C3CC3)c12 (stereo not shown) [Example 48]	
80	COc1cc(Cn2cccn2)cc2onc(NS(=O)(=O)CC(OC)C3CCCC3)c12 (stereo not shown) [Example 70]	
58	COc1cc(Cn2cccn2)cc2onc(NS(=O)(=O)CC3CN(C)CCO3)c12 (stereo not shown) [Example 119]	
16	COc1cc(Cn2cccn2)cc2onc(NS(=O)(=O)CCN3CCCC3)c12 [Example 129]	
55	COc1cc(Cn2cccn2)cc2onc(NS(=O)(=O)CC3(C)CCCC3)c12 [Example 61]	
91	COc1cc(Cn2cccn2)cc2onc(NS(=O)(=O)CCC3CCOCC3)c12 [Example 117]	
82	COc1cc(Cn2cccn2)cc2onc(NS(=O)(=O)CC3CCCC(F)C3)c12 (stereo not shown) [Example 54]	
72	COc1cc(Cn2cccn2)cc2onc(NS(=O)(=O)CC3(OC)CCCC3)c12 [Example 71]	
92	COCC1(S(=O)(=O)Nc2noc3cc(Cn4cccn4)cc(OC)c23)CCC1 [Example 74]	
42	COc1cc(Cn2cccn2)cc2onc(NS(=O)(=O)CC3CC(C)C3)c12 (stereo not shown) [Example 60]	
88	COc1cc(Cn2cccn2)cc2onc(NS(=O)(=O)CC3CC3(F)F)c12 (stereo not shown) [Example 66]	
75	COc1cc(Cn2cccn2)cc2onc(NS(=O)(=O)CC3CCC4(CCC4)O3)c12 (stereo not shown) [Example 121]	
48	COc1cc(Cn2cccn2)cc2onc(NS(=O)(=O)CCCC3CCOC3)c12 (stereo not shown) [Example 106]	
50	COc1cc(Cn2cccn2)cc2onc(NS(=O)(=O)CC3(C)CC3(F)F)c12 (stereo not shown) [Example 42]	
87	COc1cc(Cn2cccn2)cc2onc(NS(=O)(=O)CC3(C(F)F)CC3)c12 [Example 50]	
59	CCOC1(CS(=O)(=O)Nc2noc3cc(Cn4cccn4)cc(OC)c23)CCOCC1 [Example 93]	
